Measured values reported in US20130316965A1, “IDRABI[…] THE TREATMENT OF PULMONARY EMBOLISM AND FOR THE SECONDARY PREVENTION OF VENOUS THRO[…]” (priority 2011, published 2013).

Columns and labels:
[1] = test system: patients with symptomatic pulmonary embolism with or without symptomatic deep venous thrombosis; assay: CASSIOPEA (EFC6034) phase III clinical trial: symptomatic recurrent PE/DVT (efficacy); assay type: in vivo, human
Experimental: Patients with confirmed symptomatic PE with or without acute symptomatic DVT are eligible for this trial. Treatment with a therapeutic dose of any LMWH or UFH or fondaparinux is allowed only within the 36 hours immediately preceding randomization. Randomization is performed as soon as the diagnosis of PE (and DVT if concomitant suspected symptomatic DVT) is confirmed.
(§1) A blinded central and independent adjudication committee (CIAC) assesses PE (and DVT when applicable), all episodes of locally confirmed or doubtful PE/DVT recurrences, clinically relevant bleedings and deaths. Adjudication results are the basis for the final analyses.
Patients in the 3-month stratum have an additional 13-week observational period after cessation of study treatment. Patients in the 6-month stratum have a 13-week up to 26-week observational period.
Injections of SSR126517E (or its placebo) is started 12 h after the last post-randomization enoxaparin administration. SSR126517E (or its placebo) is administered s.c. once-weekly for a period of 3 or 6 months. All patients receive a first 0.5 ml injection (3.0 mg in the SSR126517E group). The following injections are also 0.5 ml, except in patients with severe renal insufficiency (defined as creatinine clearance <30 mL/min), who decrease to a dosage of 0.3 ml (1.8 mg in the SSR126517E group).
The primary efficacy outcome is symptomatic recurrent PE/DVT (fatal or not), as validated by the CIAC, within 99 days for patients from both strata (3- and 6-month treatments).
A secondary efficacy outcome for patients in the 6-month stratum is symptomatic recurrent PE/DVT, as validated by the CIAC, within 190 days.
There are 2 additional efficacy outcomes: • the time to first symptomatic recurrent PE/DVT (fatal or non fatal) within the patient's treatment period, i.e. a combined analysis of the 3-and 6-month strata patients; • the separate components of the efficacy outcomes within 99 days (all patients) and within 190 days (6-month stratum patients only).
The definitions to confirm a suspected symptomatic episode of recurrent PE/DVT are as follows:
Efficacy analyses are performed on the—All-randomized—population (patients with a patient number and an allocated treatment number recorded in the IVRS database).
The secondary efficacy outcome (VTE recurrence within 190 days) for patients in the 6-month stratum is analyzed using the same method and applying the same non-inferiority margin.
Time to first symptomatic recurrent PE/DVT within the patient's study treatment period for all patients is analyzed using Cox's proportional hazards model, stratified on intended treatment duration.

[2] = test system: patients with symptomatic pulmonary embolism with or without symptomatic deep venous thrombosis; assay: CASSIOPEA (EFC6034) phase III clinical trial: clinically relevant bleeding (safety); assay type: in vivo, human
Text: According to the instant invention, the term “bleedings” designates any clinically relevant bleeding (i.e. major or clinically relevant non-major hemorrhage).
According to the instant invention, the term “major bleedings” designates any of the following clinical situations: • bleeding associated with a fall in hemoglobin of 2 g per deciliter or more, • bleeding that led to a transfusion of 2 or more units of packed red cells or whole blood (a red cell unit being defined as the quantity of red cells obtained from or corresponding to approximately 500 ml of whole blood), • bleeding that involved a critical organ (intracranial, intraocular, intraspinal, retroperitoneal or pericardial), • bleeding that contributed to death.
as §1
The principal safety outcome is any clinically relevant bleeding as classified by the CIAC (i.e. major bleeding and other clinically relevant non-major bleeding).
Bleeding analyses are also performed on the—All-randomized—population. Other safety analyses are performed on the—All-treated—population.
Rates of clinically relevant bleedings are calculated in each treatment group at 3 months (99 days) and 6 months (190 days) and compared between treatment groups using a Mantel-Haenszel chi-square stratified on intended treatment duration. Cumulative incidences of clinically relevant bleedings during the combined 3-month and 6-month period and up to the end of study are described by treatment group using the Kaplan Meier method.

[3] = test system: patients with symptomatic pulmonary embolism with or without symptomatic deep venous thrombosis; assay: CASSIOPEA (EFC6034) phase III clinical trial: deaths; assay type: in vivo, human; conditions: overall
Text: as §1

[4] = test system: patients with symptomatic pulmonary embolism with or without symptomatic deep venous thrombosis; assay: CASSIOPEA (EFC6034) phase III clinical trial: benefit-risk assessment (PE, DVT or major bleeding composite); assay type: in vivo, human; conditions: Randomized population; composite endpoint
Text: Tables 13 and 14 show the incidence of pulmonary embolism, deep venous thrombosis or major bleedings (composite endpoint) in the randomized population in the treatment phase (3-month or 6-month treatment with idrabiotaparinux) and up to the end of the study (assessment at 12 months).

[5] = test system: patients with pulmonary embolism; conditions: human, in vivo; cited from earlier work
[6] = Randomized population, All patients
[7] = Randomized population, Patients with VKA beyond D99/D190
[8] = Randomized population, Patients with no VKA beyond D99/D190
[9] = Randomized population, or death for which PE could not be ruled out
[10] = combined 3-month and 6-month periods, time-to-event analysis (Kaplan-Meier)
[11] = treatment period plus 3 to 6-month post-treatment follow-up (up to end of study)

CC(=O)CC(c1ccccc1)c1c(O)c2ccccc2oc1=O (stereo not drawn) [Warfarin, warfarin, reference compound]
DVT only within 190 days from randomization: Patients with event ([1]; 6-month stratum): 17 (1.3%) n (%)
Non-fatal PE within 190 days from randomization: Patients with event ([1]; 6-month stratum): 10 (0.8%) n (%)
Symptomatic recurrent PE/DVT (fatal or not) from randomization to end of study: Patients with event ([1]; 6-month stratum, All patients): 76 (6.0%) n (%)
Symptomatic recurrent PE/DVT (fatal or not) from randomization to end of study: Patients with event ([1]; 6-month stratum, Patients with VKA beyond D190): 37 (9.1%) n (%)
Symptomatic recurrent PE/DVT (fatal or not) from randomization to end of study: Patients with event ([1]; 6-month stratum, Patients with no VKA beyond D190): 39 (4.5%) n (%)
Fatal PE within 190 days from randomization: Patients with event ([1]; 6-month stratum, or death for which PE could not be ruled out): 9 (0.7%) n (%)
Patients who experienced DVT up to Day 190 ([1]; 6-month stratum, up to Day 190): 1.3%
DVT only up to the end of study: Patients with event ([1]; Randomized population): 31 (1.9%) n (%)
DVT only within 99 days from randomization: Patients with event ([1]; Randomized population): 18 (1.1%) n (%)
Non-fatal PE up to the end of study: Patients with event ([1]; Randomized population): 41 (2.6%) n (%)
Non-fatal PE within 99 days from randomization: Patients with event ([1]; Randomized population): 9 (0.6%) n (%)
Symptomatic recurrent PE/DVT (fatal or not) within 190 days from randomization: Patients with event ([1]; Randomized population in the 6-month stratum): 36 (2.8%) n (%)
Symptomatic recurrent PE/DVT (fatal or not) from D100/D191 to end of study: Patients with event [1, 6]: 47 (3.1%) n (%)
Symptomatic recurrent PE/DVT (fatal or not) from randomization to end of study: Patients with event [1, 6]: 97 (6.1%) n (%)
Symptomatic recurrent PE/DVT (fatal or not) from D100/D191 to end of study: Patients with event [1, 7]: 32 (6.6%) n (%)
Symptomatic recurrent PE/DVT (fatal or not) from randomization to end of study: Patients with event [1, 7]: 45 (9.3%) n (%)
Symptomatic recurrent PE/DVT (fatal or not) from D100/D191 to end of study: Patients with event [1, 8]: 15 (1.5%) n (%)
Symptomatic recurrent PE/DVT (fatal or not) from randomization to end of study: Patients with event [1, 8]: 52 (4.6%) n (%)
Fatal PE up to the end of study: Patients with event [1, 9]: 25 (1.6%) n (%)
Fatal PE within 99 days from randomization: Patients with event [1, 9]: 16 (1.0%) n (%)
Symptomatic recurrent PE/DVT (fatal or not) within 99 days from randomization: Patients with event ([1]; Randomized population, within 99 days): 43 (2.7%) n (%)
Cumulative incidence of symptomatic recurrent PE/DVT at Day 99 [1, 10]: 2.7%
Cumulative incidence of symptomatic recurrent PE/DVT at Day 190 [1, 10]: 3.4%
Cumulative incidence rate of symptomatic recurrent PE/DVT at Day 360 [1, 11]: 7.2%
Patients who experienced DVT up to Day 99 ([1]; up to Day 99): 1.1%
Patients who experienced DVT up to the end of study ([1]; up to the end of study): 1.9%
Patients who experienced non-fatal PE up to the end of study ([1]; up to the end of study): 2.6%
Clinically relevant bleedings up to Day 190 ([2]; 6-month stratum): 8.1%
Fatal bleeding within 190 days from randomization: Patients with event ([2]; 6-month stratum): 5 (0.4%) n (%)
Intracranial haemorrhage (fatal or not) within 190 days from randomization: Patients with event ([2]; 6-month stratum): 6 (0.5%) n (%)
Major bleeding within 190 days from randomization: Patients with event ([2]; 6-month stratum): 36 (2.8%) n (%)
Patients who experienced a major bleeding up to Day 190 ([2]; 6-month stratum): 2.8%
Any clinically relevant bleeding within 99 days from randomization: Patients with event ([2]; Randomized population): 106 (6.6%) n (%)
Fatal bleeding within 99 days from randomization: Patients with event ([2]; Randomized population): 6 (0.4%) n (%)
Intracranial haemorrhage (fatal or not) within 99 days from randomization: Patients with event ([2]; Randomized population): 7 (0.4%) n (%)
Major bleeding within 99 days from randomization: Patients with event ([2]; Randomized population): 39 (2.4%) n (%)
Cumulative incidence of clinically relevant bleeding at Day 99 [2, 10]: 6.7%
Cumulative incidence of clinically relevant bleeding at Day 190 [2, 10]: 9.1%
Cumulative incidence rate of clinically relevant bleeding at Day 360 [2, 11]: 10.0%
Incidence of clinically relevant bleeding up to Day 99 ([2]; up to Day 99): 6.6%
Patients who experienced a major bleeding up to Day 99 ([2]; up to Day 99): 2.4%
Patients who died on study [3]: 5.3%
PE, DVT or major bleeding in the combined 3-month and 6-month period: Patients with event [4]: 98 (6.1%) n (%)
PE, DVT or major bleeding up to the end of study: Patients with event [4]: 150 (9.4%) n (%)

CO[C@H]1O[C@H](COS(=O)(=O)O)[C@@H](O[C@@H]2O[C@@H](C(=O)O)[C@@H](O[C@H]3O[C@H](COS(=O)(=O)O)[C@@H](O[C@@H]4O[C@H](C(=O)O)[C@@H](O[C@H]5O[C@H](COS(=O)(=O)O)[C@@H](OC)[C@H](OC)[C@H]5OC)[C@H](OC)[C@H]4OC)[C@H](OS(=O)(=O)O)[C@H]3OS(=O)(=O)O)[C@H](OC)[C@H]2OC)[C@H](OS(=O)(=O)O)[C@H]1OS(=O)(=O)O [idraparinux]
Outcome in patients with pulmonary embolism [5]: apparent failure
